Patent publication US12168654B2, “Pyrimidine derivative containing one deuterium atom and preparation process and use thereof” (Guangdong Lewwin Pharmaceutical Research Institute Co., Ltd., priority 2018, dated 2024)
Where two headings read alike, the source gives them in different places.

What was measured:
[1] = in vitro; settings: for half-life: microsomes
Protocol: Firstly, a SD rat (200-300 g) was fasted for 12 hours, and then infused rapidly with normal saline. Liver was taken out from the rat, from which liver microsomes were extracted at 0-4° C., ready for use after calibrating the concentration of liver microsomes. At 37° C., liver microsomes were incubated in combination with a certain concentration of compounds and auxiliary reagents for a period of time. The reaction was then quenched with acetonitrile.

[2] = Pharmacokinetic properties in mice (IV and PO); settings: in vivo; for AUC(0-inf) / clearance / half-life / bioavailability: Sprague-Dawley (SD); for Vd / Cmax / Tmax: Sprague-Dawley
[3] = tested on: tumor in naked mice; assay: Anti-tumor test in naked mice; type: in vivo; settings: once a day for 2 weeks
[4] = tested on: human highly metastatic hepatoma cells MHCC-97H; assay: MTT anti-tumor cell proliferation test; type: cell-based; settings: for IC50: Homo sapiens, MHCC97H, MTT
Protocol: The novel pyrimidine derivatives of the invention were tested on their anti-tumor activities. Human highly metastatic hepatoma cells MHCC-97H were employed in the MTT process to evaluate the anti-tumor cell proliferation activities. The specific operation steps were as below: tumor cells were inoculated in a 96-well plate by a certain number of cells, at a cell density of 5×10^3-10×10^3/well. They were incubated in an incubator at 37° C. and a carbon dioxide concentration of 5% overnight, into which was then added the compound samples to be tested. After incubation for 72 hours, MTT was added to keep on for 4 hours, and dissolved with the addition of DMSO with shaking, and then detected with a microplate reader (570 nm).
(1) The anti-tumor cell activities of (R)-1D228 are tested. With Tepotinib and (R)-4D288 as the control, human highly metastatic hepatoma cell MHCC-97Hwas selected to evaluate the antitumor cell proliferative activities through the MTT process. The specific operation steps were as below: the tumor cells were inoculated in a 96-well culture plate following a certain number of cells, the cell density was 5×103-10×10^3/well. After cultivation in an incubator at 37° C. and at a CO2 concentration of 5% overnight, the compound samples to test were added. After cultivation for 72 hours, MTT was added to continue the cultivation for 4 hours. DMSO was then added to dissolve with stirring, and detected with a microplate reader (570 nm).

[5] = Body weights of animals during administration; type: in vivo, naked mice; settings: 8 mg/kg, in g (unit assumed)
Excerpt: The body weights of animals in each group during administration are shown in FIG. 9 and Table 7, showing that there were no significant changes in the body weights of mice and there were not abnormal behaviors of mice during administration.

[6] = incubation 72 hours, Table 1, read-out: Human highly metastatic hepatoma cell MHCC-97H (μM), median inhibitory concentration IC50
[7] = cultivation 72 hours, Table 4, read-out: Human highly metastatic hepatoma cell MHCC-97H (μM), inhibitory activity

[2H]C([2H])([2H])[C@]([2H])(c1cccc(-c2ncc(OCC3CCN(C)CC3)cn2)c1)n1nc(-c2cccc(C#N)c2)ccc1=O [(R)-14]
K ([1]; SD, rat): 0.0198 min⁻¹
half-life ([1]; SD, rat): 0.583 h
AUC(0-inf) ([2]; iv, 2 mg/kg): 2440 ng·h/mL
clearance ([2]; iv, 2 mg/kg): 13.7 mL/min/kg
half-life ([2]; iv, 2 mg/kg): 4.48 h
AUC(0-inf) ([2]; po, 5 mg/kg): 6310 ng·h/mL
bioavailability ([2]; po, 5 mg/kg): 104%
Vd ([2]; iv, 2 mg/kg): 5.29 L/kg
Cmax ([2]; po, 5 mg/kg): 614 ng/mL
Tmax ([2]; po, 5 mg/kg): 4 h
Relative tumor proliferation rate T/C (%) ([3]; 4 mg/kg intragastric): 2.28%
Tumor inhibition rate (%) ([3]; 4 mg/kg intragastric): 98.0%
Tumor weights ([3]; 4 mg/kg intragastric): 0.013 ± 0.015
Relative tumor proliferation rate T/C (%) ([3]; 8 mg/kg intragastric): 1.59%
Tumor inhibition rate (%) ([3]; 8 mg/kg intragastric): 98.2%
Tumor weights ([3]; 8 mg/kg intragastric): 0.012 ± 0.006

[2H]C([2H])([2H])[C@@]([2H])(c1cccc(-c2ncc(OCC3CCN(C)CC3)cn2)c1)n1nc(-c2cccc(C#N)c2)ccc1=O [Compound 15]
IC50 [4, 6]: 1.12 µM

CN1CCC(COc2cnc(-c3cccc(Cn4nc(-c5cccc(C#N)c5)ccc4=O)c3)nc2)CC1 [Compound 16]
IC50 [4, 6]: 0.0134 µM

C[C@H](c1cccc(-c2ncc(OCCCN(C)C)cn2)c1)n1nc(-c2cccc(C#N)c2)ccc1=O [Compound 2]
IC50 [4, 6]: 0.014 µM

CC(c1cccc(-c2ncc([Se]CCCN(C)C)cn2)c1)n1nc(-c2cccc(C#N)c2)ccc1=O (centres unmarked) [Compound 10]
IC50 [4, 6]: 0.027 µM

[2H]C([2H])([2H])[C@]([2H])(c1cccc(-c2ncc(OCC3CCN(C)CC3)cn2)c1)n1nc(-c2cccc(C#N)c2)ccc1=O [Compound 2]
IC50 [4, 7]: 0.0037 µM

CC(c1cccc(-c2ncc(OCC3CCN(C)CC3)cn2)c1)n1nc(-c2cccc(C#N)c2)ccc1=O (racemic) [(±)-5b]
IC50 [4, 6]: 0.0353 µM

CC(c1cccc(-c2ncc(OCC3CCN(C)CC3)cn2)c1)n1nc(-c2cccc(C#N)c2)ccc1=O (centres unmarked) [Compound 4]
IC50 [4, 6]: 0.0353 µM

C[C@@H](c1cccc(-c2ncc([Se]CCCN(C)C)cn2)c1)n1nc(-c2cccc(C#N)c2)ccc1=O [Compound 12]
IC50 [4, 6]: 0.415 µM

[2H][C@@](C)(c1cccc(-c2ncc(OCC3CCN(C)CC3)cn2)c1)n1nc(-c2cccc(C#N)c2)ccc1=O [(R)-1D228]
Relative tumor proliferation rate T/C (%) ([3]; 4 mg/kg intragastric): 1.78%
Tumor inhibition rate (%) ([3]; 4 mg/kg intragastric): 98.3%
Tumor weights ([3]; 4 mg/kg intragastric): 0.011 ± 0.006
Relative tumor proliferation rate T/C (%) ([3]; 8 mg/kg intragastric): 1.17%
Tumor inhibition rate (%) ([3]; 8 mg/kg intragastric): 98.6%
Tumor weights ([3]; 8 mg/kg intragastric): 0.009 ± 0.007

CC(c1cccc(-c2ncc(OCCCN(C)C)cn2)c1)n1nc(-c2cccc(C#N)c2)ccc1=O (centres unmarked) [Compound 1]
IC50 [4, 6]: 0.0476 µM

C[C@@H](c1cccc(-c2ncc(OCCCN(C)C)cn2)c1)n1nc(-c2cccc(C#N)c2)ccc1=O [Compound 3]
IC50 [4, 6]: 1.04 µM

C[C@H](c1cccc(-c2ncc([Se]CCCN(C)C)cn2)c1)n1nc(-c2cccc(C#N)c2)ccc1=O [Compound 11]
IC50 [4, 6]: 0.0117 µM

C[C@@H](c1cccc(-c2ncc(OCC3CCN(C)CC3)cn2)c1)n1nc(-c2cccc(C#N)c2)ccc1=O [(S)-5b]
IC50 [4, 6]: 0.118 µM

CN1CCC(COc2cnc(-c3cccc(Cn4nc(-c5cccc(C#N)c5)ccc4=O)c3)nc2)CC1 [Tepotinib, reference compound]
half-life ([1]; SD, rat): 0.345 h
K ([1]; rat liver microsomes, 37° C.): 0.0134 min⁻¹
AUC(0-inf) ([2]; mouse, IV 2 mg/kg, read-out: AUC0-∞): 563 ng·h/mL
clearance ([2]; mouse, IV 2 mg/kg, read-out: CL (converted)): 59.2 mL/min/kg
half-life ([2]; mouse, IV 2 mg/kg, read-out: T1/2 (converted)): 1.79 h
bioavailability ([2]; mouse, PO 5 mg/kg vs IV 2 mg/kg, read-out: F % (bioavailability)): 67.8%
AUC(0-inf) ([2]; mouse, PO 5 mg/kg, read-out: AUC0-∞): 982 ng·h/mL
Vd ([2]; mouse, IV 2 mg/kg, read-out: Vz): 9.18 L/kg
Cmax ([2]; mouse, PO 5 mg/kg, read-out: Cmax): 211 ng/mL
Tmax ([2]; mouse, PO 5 mg/kg, read-out: Tmax): 1 h
Relative tumor proliferation rate T/C (%) ([3]; 8 mg/kg intragastric): 4.9%
Tumor inhibition rate (%) ([3]; 8 mg/kg intragastric): 93.8%
Tumor weights ([3]; 8 mg/kg intragastric): 0.041 ± 0.021
body weights D 0 ([5]; D 0): 24.9 ± 1.0
body weights D 3 ([5]; D 3): 25.1 ± 1.1
body weights D 6 ([5]; D 6): 25.3 ± 1.0
body weights D 9 ([5]; D 9): 25.2 ± 1.1
body weights D 12 ([5]; D 12): 25.3 ± 1.0
body weights D 14 ([5]; D 14): 25.1 ± 1.0

C[C@H](c1cccc(-c2ncc(SCCCN(C)C)cn2)c1)n1nc(-c2cccc(C#N)c2)ccc1=O [Compound 8]
IC50 [4, 6]: 0.0139 µM

[2H]C([2H])([2H])[C@H](c1cccc(-c2ncc(OCC3CCN(C)CC3)cn2)c1)n1nc(-c2cccc(C#N)c2)ccc1=O [Compound 13]
IC50 [4, 6]: 0.0035 µM

CC(c1cccc(-c2ncc(SCCCN(C)C)cn2)c1)n1nc(-c2cccc(C#N)c2)ccc1=O (centres unmarked) [Compound 7]
IC50 [4, 6]: 0.0272 µM

[2H][C@@](C)(c1cccc(-c2ncc(OCC3CCN(C)CC3)cn2)c1)n1nc(-c2cccc(C#N)c2)ccc1=O [Compound 1]
IC50 [4, 7]: 0.0033 µM

C[C@]12CC[C@H]3[C@@H](CCC4=CC(=O)CC[C@@]43C)[C@@H]1CC[C@@H]2O [testosterone, reference compound]
T1/2 (metabolic half-life in liver microsomes) ([1]; rat liver microsomes, 37° C.): 2.3 min

[2H]C([2H])([2H])[C@]([2H])(c1cccc(-c2ncc(OCC3CCN(C)CC3)cn2)c1)n1nc(-c2cccc(C#N)c2)ccc1=O [Compound 14]
IC50 [4, 6]: 0.0037 µM

C[C@H](c1cccc(-c2ncc(OCC3CCN(C)CC3)cn2)c1)n1nc(-c2cccc(C#N)c2)ccc1=O [(R)-5b]
IC50 [4, 6]: 0.0037 µM
activity for inhibiting tumor cells, times that of (S)-5b ([4]; MHCC-97H, relative to (S)-5b): 31.9 times
activity for inhibiting tumor cells, times that of (±)-5b ([4]; MHCC-97H, relative to (±)-5b): 9.5 times
K ([1]; SD, rat): 0.0259 min⁻¹
half-life ([1]; SD, rat): 0.447 h
AUC(0-inf) ([2]; iv, 2 mg/kg): 2140 ng·h/mL
clearance ([2]; iv, 2 mg/kg): 15.5 mL/min/kg
half-life ([2]; iv, 2 mg/kg): 4.23 h
AUC(0-inf) ([2]; po, 5 mg/kg): 4580 ng·h/mL
bioavailability ([2]; po, 5 mg/kg): 86%
Vd ([2]; iv, 2 mg/kg): 5.69 L/kg
Cmax ([2]; po, 5 mg/kg): 495 ng/mL
Tmax ([2]; po, 5 mg/kg): 2 h

CN1CCC(COc2cnc(-c3cccc(Cn4nc(-c5cccc(C#N)c5)ccc4=O)c3)nc2)CC1 [Compound 3]
IC50 [4, 7]: 0.0134 µM

C[C@@H](c1cccc(-c2ncc(SCCCN(C)C)cn2)c1)n1nc(-c2cccc(C#N)c2)ccc1=O [Compound 9]
IC50 [4, 6]: 0.189 µM
